In patent publication US20230293488A1, “COMPOSITIONS AND METHODS OF USE OF ANTIBACTERIAL DRUG COMBINATIONS” (priority 2015, published 2023):
Blank lines part the entries; values can stand above or below the molecule they belong to.

How the values were obtained:
MRSA N315 [1] = assay: MIC assay and FICI synergy determination (checkerboard); type: cell-based, Staphylococcus aureus; conditions: for MIC: Staphylococcus aureus, MRSA, read-out: MIC in MRSA N315
Experimental: (§1) Microbiological Studies: MRSA N315 was a gift from Dr. Steven Gill, University of Rochester, Rochester, NY, USA. S. aureus ATCC 29213 was acquired from the American Type Culture Collection. De-identified clinical MRSA isolates were selected at random from the clinical isolate strain bank at Barnes-Jewish Hospital, St. Louis, MO, USA. Minimal inhibitory concentration (MIC) assays for inhibition of growth were performed following the recommendations of the Clinical and Laboratory Standards Institute (CLSI)^43. Briefly, 23 antibacterial compounds (Supplemental Table 1) were selected based on coverage of all major drug classes, including three compounds not classified as antibiotics for human use, but with known antibacterial properties. Compounds were dissolved in dimethyl sulfoxide (DMSO) to a stock concentration of 50 mg/ml. Exceptions: Sulfometuron at 20 mg/ml in DMSO; Tobramycin, D-cycloserine, and colistin at 50 mg/ml in H2O and filtered at 2 μm. The 23 compounds were formulated into all 253 possible unique pairwise combinations at fixed ratios and at 100× concentrations in solvent. To increase the range of concentrations assayed for possible synergistic or antagonistic drug interactions (>2,000-fold), the drug stocks were arrayed into threefold dilution series down eight rows in 96-well Costar master drug plates, using a BioMek FX robotic liquid handler (Beckman Coulter, Inc.). Drugs were then mixed 1:100 into 96-well plates containing 200 μl/well of cation-adjusted Mueller-Hinton broth (CAMHB). All drug susceptibility assay wells were inoculated with ˜1 μl of mid-log phase bacterial culture at 0.5 McFarland standard (˜2×10^8 CFU/ml) and grown at 37° C. for 24 h. Endpoint growth at 37° C. after 24 h was determined by optical density at 600 nm ≥0.1 using a Synergy H1 reader (BioTek, Inc.).
Synergy of antibiotic combinations was determined using the fractional inhibitory concentration index (FICI) method ^57,58. By this method, the MIC of the antibiotic compound in combination is divided by the MIC of the compound alone, yielding the fractional contribution of each drug component in the combination. Quotients for all in a combination are summed and drug interactions scored using the formula: FICI=(MIC Acomb A B C)/MICagent A+(MIC Bcomb A B C)/MICagent B+(MIC Ccomb A B C)/MICagentC Select pairwise combinations against MRSA were then combined with each of the 21 remaining single drugs to make triple combinations, formulated and tested in identical fashion to the double combinations. Synergy of combinations was confirmed via triplicate measurements of drug conditions at the MIC. Based on its high synergy against MRSA N315 in the sparse screening, ME/PI/TZ and its constituents were selected for further characterization. Final susceptibility testing of ME/PI/TZ and its components was performed using twofold dilution from 128 to 2 μg/ml for each component

MRSA N315 [2] = assay: Neutropenic mouse peritonitis model of MRSA infection; type: in vivo, mice; conditions: for Result (Alive/Dead) / Result (survivors per group): 6 doses; for Result (Alive/Dead): one line per mouse; for Result (survivors per group): six days post-infection
Description: In vivo mouse model of MRSA infection: Animals. Outbred ICR female mice (6-8 weeks old, 17-25 g body weight; Harlan Laboratories, Inc., Indianapolis, IN, USA) were used. Mice were given Teklad 2019 Extruded Rodent Diet (Harlan Laboratories, Inc., Indianapolis, IN, USA) and water ad libitum. Mice were maintained in polycarbonate shoebox cages containing corncob (The Andersons, Inc., Maumee, OH, USA) and Alpha-dri (Shepherd Specialty Papers, Inc., Richland, MI, USA) bedding under 12-h light/12-h dark cycle at 22±1° C. All procedures involving animals were approved by the University of Notre Dame Institutional Animal Care and Use Committee.
Neutropenic mouse peritonitis model of MRSA infection. Doses of cyclophosphamide (100 μl of 50 mg/ml in 0.9% saline corresponding to 200 mg/kg; Alfa Aesar, Ward Hill, MA, USA) were given intraperitoneally (IP) at 4 days and 1 day prior to infection. The S. strain N315 was streaked onto Brain-Heart Infusion (BHI; Becton Dickson and Company, Sparks, MD, USA) agar and grown overnight at 36° C. The MRSA N315 bacterial inoculum was adjusted to approximately 1×10^8 CFU/ml (corresponding to OD540=0.5), then diluted to give 2×10^7CFU/ml. A 10% porcine mucin (Sigma-Aldrich, St. Louis, MO, USA) suspension was prepared and adjusted to pH 7. Immediately prior to infection, the bacterial inocula were diluted 1:1 with 10% mucin to a final concentration of 1×10^7CFU/ml in 5% mucin. The mice were then infected IP with 0.5 ml of this inoculum. In vivo dosing of compounds in mice was compared with mean or range peak human plasma concentrations of studied β-lactams^44,46,47,62,63.
Antibiotic preparation. Meropenem was obtained from AK Scientific, Inc. (Union City, CA, USA), piperacillin and tazobactam were obtained from Sigma-Aldrich Co. (St. Louis, MO, USA). Linezolid (CAS 165800-03-3) was obtained from AmplaChem (Carmel, IN, USA). Antibiotics were dissolved at a concentration of 16.67 mg/ml in 30% DMSO/30% propylene glycol/40% water. Linezolid was used as positive control and was prepared at 7.5 mg/ml. Vehicle (30% DMSO/30% propylene glycol/40% water) was included as negative control. The dosing formulations were sterilized by passing through 0.2 μm filter prior to injection.
(§2) Bacterial isolation from blood. Blood samples were checked for bacterial growth by plating and liquid culture. Whole blood (100 μl, three samples per group) was spread onto Brain-Heart Infusion (BHI) agar plates and incubated at 36° C. overnight. Colonies were counted and three colonies were selected, grown overnight in liquid BHI culture at 36° C., then mixed 1:1 with 30% LB-glycerol and stored at −80° C. The remaining three blood samples of each group (50 μl) was added to 5 ml BHI broth and incubated overnight at 36° C. When growth was noted, cultures were mixed 1:1 with 30% LB-glycerol and stored at −80° C.
Statistical Analyses: Data for minimal inhibitory concentrations (MICs) are derived from triplicate measurements. Adaptation data are taken from two replicate experiments for each drug combination condition. Data for qRT-PCR expression profiling are derived from three replicate experiments taken from three biological replicates each, with standard error of measurement calculated. Mice were treated in groups of six, and growth determination of bacteria determined via plate and broth culture in triplicate. Fisher's Exact test with Bonferroni correction was used for 8 independent tests (comparing each treatment to 610 vehicle).

MRSA N315 [3] = assay: In vitro MICs and FICI for MRSA N315 after passage in vivo; type: cell-based, Staphylococcus aureus
Description: We tested MRSA N315 cultures from blood drawn from mice treated with meropenem, piperacillin, or vehicle for their in vitro MICs against ME/PI/TZ and its constituent single drugs to determine whether adaptation occurred during passage in vivo. All four tested isolates of MRSA N315 had identical MICs for the triple ME/PI/TZ and all constituent drugs, and thus identical synergy (Table 6B).
as §1, §2

MRSA N315 [4] = assay: Adaptation and cross-resistance assays (11-day passage); type: cell-based, Staphylococcus aureus
Experimental: Adaptation and Cross-resistance Assays: 414 MRSA N315 was grown in 150 μl/well of CAMHB with constant shaking at 37° C. and passaged over 11 days in identical 96-well plates containing replicate threefold dilutions of ME/PI/TZ, ME/PI, ME/TZ, PI/TZ, ME, PI, and TZ. Top concentrations of drug combinations were 33.3 μg/ml for each component, while top concentrations for single drugs was 100 μg/ml. To test for cell viability, at the end of the assay on day 11, all wells from the plate were pinned with a sterile 96-pin replicator and transferred to CAMHB only. After passage, plates were filled 1:1 with 30% CAMHB/glycerol and frozen at −80° C. for later analysis.
Growth rate of isolates over passages in each condition was determined by linear best-fit of logarithm-converted exponential growth phase. […] Adapted isolates were retrospectively chosen from each combination or single compound in wells showing an increase in MIC or growth rate, frozen isolates were streaked out on agar plates to obtain single colonies, re-grown in broth conditions identical to those in which they grew originally, and then re-inoculated in sterile 96-well plates identical to the original 11-day 431 plates.

mecA = assay: Expression profiling with qRT-PCR; type: cell-based, Staphylococcus aureus; conditions: wild-type MRSA N315, relative to gyrB
Experimental: Expression profiling with qRT-PCR: Wild-type and adapted MRSA N315 isolates were grown in triplicate in 100 ml flasks to mid-log phase in CAMHB +/−piperacillin at 11.1 μg/ml or tazobactam at 33.3 μg/ml. To harvest cells at mid-log phase, each culture flask was split into 2×50 ml screw-cap tubes, spun down at 4° C. for 10 min at 3500 rpm, supernatant removed, and pellets combined carefully with a 2 ml serological pipette. 1 ml RNAprotect Bacteria Reagent (Qiagen, Valencia, CA, USA) was added to pellets to stabilize the RNA, vortexed briefly, and incubated for 5 min at RT. After incubation, tubes were spun again at 4° C. for 10 min at 3500 rpm, supernatant removed, and the pellets were stored at −80° C. […]
CFX protocol: 2 min@50° C., 2 min@95° C., (15 s@95° C., 1 min@60° C.)×40 cycles. Gene expression was determined using the ΔΔCt method of normalized quantitation 60, where Ct indicates the cycle number at which exponential growth phase increases above threshold fluorescence signal.

[5] = 67 mg/kg (of each) every 8 hrs SC

Molecule: CCN(CC)C(=S)SSC(=S)N(CC)CC [Disulfiram]
- MIC (MRSA N315 [1]): 11.1 µg/mL

Molecule: CC[C@H]1OC(=O)[C@H](C)[C@@H](O[C@H]2C[C@@](C)(OC)[C@@H](O)[C@H](C)O2)[C@H](C)[C@@H](O[C@@H]2O[C@H](C)C[C@H](N(C)C)[C@H]2O)[C@](C)(O)C[C@@H](C)CN(C)[C@H](C)[C@@H](O)[C@]1(C)O [Azithromycin]
- MIC (MRSA N315 [1]; single compounds): > 200 µg/mL

Molecule: CN(C)c1cc(NC(=O)CNC(C)(C)C)c(O)c2c1C[C@H]1C[C@H]3[C@H](N(C)C)C(O)=C(C(N)=O)C(=O)[C@@]3(O)C(O)=C1C2=O [Tigecycline]
- MIC (MRSA N315 [1]): 0.4 µg/mL

Molecule: Colistin
- MIC in MRSA N315 (MRSA N315 [1]; single compounds): 500 µg/mL

Molecule: Cc1cc(C)nc(NC(=O)NS(=O)(=O)c2ccccc2C(=O)O)n1 [Sulfometuron]
- MIC (MRSA N315 [1]): > 200 µg/mL

Molecule: C[C@]1(Cn2ccnn2)[C@H](C(=O)O)N2C(=O)C[C@H]2S1(=O)=O [Tazobactam]
- MIC (MRSA N315 [1]; single compounds): 128 µg/mL
- Result (Alive/Dead) (MRSA N315 [2]; [5]): Dead
- Result (survivors per group) (MRSA N315 [2]; [5]): 0/6
- mice that succumbed to the infection (MRSA N315 [2]; most within 48 h, 67 mg/kg (of each)): all mice
- MIC (MRSA N315 [3]; Staphylococcus aureus, MRSA): 100 µg/mL
- MIC (MRSA N315 [3]; Wild-type N315): 100 µg/mL
- MIC (MRSA N315 [3]; colonies from mice given PI): 100 µg/mL
- MIC (MRSA N315 [3]; colonies from mice given Vehicle): 100 µg/mL
- collateral effect on susceptibility (MRSA N315 [4]; MRSA N315 after exposure to any other single or double compounds): no collateral sensitivity
- induction of mecA expression (mecA): strong inducer of mecA

Molecule: Bleomycin
- MIC in MRSA N315 (MRSA N315 [1]; single compounds): >500 µg/mL

Molecule: CC1(C)S[C@@H]2[C@H](NC(=O)[C@H](N)c3ccc(O)cc3)C(=O)N2[C@H]1C(=O)O [amoxicillin]
- collateral effect on susceptibility (MRSA N315 [4]; MRSA N315 after prior exposure/adaptation to meropenem): sensitizing

Molecule: CN[C@H](CC(C)C)C(=O)N[C@H]1C(=O)N[C@@H](CC(N)=O)C(=O)N[C@H]2C(=O)N[C@H]3C(=O)N[C@H](C(=O)N[C@H](C(=O)O)c4cc(O)cc(O)c4-c4cc3ccc4O)[C@H](O)c3ccc(c(Cl)c3)Oc3cc2cc(c3O[C@@H]2O[C@H](CO)[C@@H](O)[C@H](O)[C@H]2O[C@H]2C[C@](C)(N)[C@H](O)[C@H](C)O2)Oc2ccc(cc2Cl)[C@H]1O [Vancomycin]
- MIC (MRSA N315 [1]): 0.4 µg/mL

Molecule: CC(=O)NC[C@H]1CN(c2ccc(N3CCOCC3)c(F)c2)C(=O)O1 [Linezolid]
- MIC (MRSA N315 [1]; single compounds): 3.7 µg/mL
- bacteria in blood taken at 11 h post-infection (MRSA N315 [2]; 30 mg/kg): zero plated colonies and no growth in liquid cultures
- Result (Alive/Dead) (MRSA N315 [2]; 30 mg/kg every 8 hrs SC): Alive
- Result (survivors per group) (MRSA N315 [2]; 30 mg/kg every 8 hrs SC): 6/6
- survival for six days post-infection (MRSA N315 [2]; 30 mg/kg, n=6/group): All mice
- p versus vehicle (Fisher's exact test) (MRSA N315 [2]; survival, n=6/group): 0.02

Results, then the molecule that gave them:

- MIC (MRSA N315 [1]; single compounds): > 500 µg/mL
Molecule: NC[C@H]1O[C@H](O[C@H]2[C@H](O)[C@@H](O[C@H]3O[C@H](CO)[C@@H](O)[C@H](N)[C@H]3O)[C@H](N)C[C@@H]2N)[C@H](N)C[C@@H]1O [Tobramycin]

- MIC (MRSA N315 [1]; single compounds): 6.2 µg/mL
Molecule: COc1cc(Cc2cnc(N)nc2N)cc(OC)c1OC [Trimethoprim]

- MIC (MRSA N315 [1]; single compounds): > 500 µg/mL
Molecule: CCC[C@@H]1C[C@@H](C(=O)N[C@@H]([C@H]2O[C@H](SC)[C@H](O)[C@@H](O)[C@H]2O)[C@H](C)Cl)N(C)C1 [Clindamycin]

- MIC (MRSA N315 [1]; single compounds): > 500 µg/mL
Molecule: C[C@H]1[C@H](NC(=O)/C(=N\OC(C)(C)C(=O)O)c2csc(N)n2)C(=O)N1S(=O)(=O)O [Aztreonam]

- MIC (MRSA N315 [1]; single compounds): 0.4 µg/mL
Molecule: C[C@H]1COc2c(N3CCN(C)CC3)c(F)cc3c(=O)c(C(=O)O)cn1c23 [Levofloxacin]

- MIC (MRSA N315 [1]; single compounds): 0.4 µg/mL
Molecule: C/C(=C\C(=O)OCCCCCCCCC(=O)O)C[C@@H]1OC[C@H](C[C@@H]2O[C@H]2[C@@H](C)[C@H](C)O)[C@@H](O)[C@H]1O [Mupirocin]

- MIC (MRSA N315 [1]; single compounds): 0.4 µg/mL
Molecule: CO[C@H]1/C=C/O[C@@]2(C)Oc3c(C)c(O)c4c(O)c(c(/C=N/N5CCN(C)CC5)c(O)c4c3C2=O)NC(=O)/C(C)=C\C=C\[C@H](C)[C@H](O)[C@@H](C)[C@@H](O)[C@@H](C)[C@H](OC(C)=O)[C@@H]1C [Rifampin]

- MIC (MRSA N315 [1]; single compounds): 100 µg/mL
Molecule: CO/N=C(\C(=O)N[C@@H]1C(=O)N2C(C(=O)[O-])=C(C[N+]3(C)CCCC3)CS[C@H]12)c1csc(N)n1 [Cefepime]

- MIC in MRSA N315 (MRSA N315 [1]; single compounds): 56 µg/mL
Molecule: N[C@@H]1CONC1=O [D-Cycloserine]

- MIC (MRSA N315 [1]; single compounds): > 200 µg/mL
Molecule: Cc1ccc(C)c(OCCCC(C)(C)C(=O)O)c1 [Gemfibrozil]

- MIC (MRSA N315 [1]; single compounds): 11.1 µg/mL
Molecule: O=C(N[C@H](CO)[C@H](O)c1ccc([N+](=O)[O-])cc1)C(Cl)Cl [Chloramphenicol]

- MIC (MRSA N315 [1]; single compounds): 100 µg/mL
Molecule: Cc1cc(NS(=O)(=O)c2ccc(N)cc2)no1 [Sulfamethoxazole]
